From publication PMC10657444, “Design and evaluation of tadpole-like conformational antimicrobial peptides” (Communications Biology, 2023) come the findings set out here.

In assay [1] the test system is S. aureus ATCC 25923. The assay can be described thus: Time-kill assay (growth curve, OD600). Format: cell-based, Staphylococcus aureus. Particulars: 16 × MIC. How it is done:
Tube was inoculated (5 × 10^6 CFU/mL) with S. aureus ATCC 25923 and incubated at 37°C under shaking. Bacterial concentration was measured at each time point (0, 1, 2, 2.5, 3, 3.5, 4, 5, 6 and 7 h) by measuring absorbance at 600 nm with a microplate reader.

For assay [2], the system named is A. baumannii 1318. The format is cell-based, Acinetobacter baumannii. The text has this: (§1) Bacteria were cultivated in Luria-Bertani (LB) broth.
Assay [3] deals with A. baumannii 1337. Format: cell-based, Acinetobacter baumannii.
From the text: as §1

For assay [4], the system named is K. pneumoniae 3026. The format is cell-based, Klebsiella pneumoniae.
From the text: as §1

Structures are written as SMILES. Values after ≈ are worked out from the molar mass of the structure shown. Values joined by “and” are separate entries in the source; they are usually repeats but may differ in a detail not shown here. Equal entries are not always repeated. Non-standard residues stand in square brackets, D forms with d. Residues, ends and D or L forms follow the SMILES beside them.

As for `CC[C@H](C)[C@H](NC(=O)[C@H](CCCNC(=N)N)NC(=O)[C@H](CCCNC(=N)N)NC(=O)[C@H](CC(C)C)NC(=O)[C@H](Cc1ccccc1)NC(=O)[C@@H](N)CCCNC(=N)N)C(=O)N[C@@H](Cc1ccccc1)C(=O)N[C@@H](Cc1ccccc1)C(=O)N[C@@H](Cc1ccccc1)C(=O)N[C@@H](Cc1ccccc1)C(N)=O` [HT2] (H-RFLRRIFFFF-NH2), in assay [1], the “time to complete inhibition of bacterial growth” value is on record as 1 h. For the same compound, the “OD600, growth curve (SI Fig 2)” value in assay [1] (0 h) is 0.056 and 0.082 and 0.062; in assay [1] (1 h), 0.082 and 0.091 and 0.066; in assay [1] (2 h), 0.069 and 0.072 and 0.06; in assay [1] (2.5 h), 0.061 and 0.073 and 0.063; in assay [1] (3 h), 0.083 and 0.086 and 0.085; in assay [1] (3.5 h) it was 0.066 and 0.069 and 0.083. Besides, the “OD600, growth curve (SI Fig 2)” value in assay [1] (4 h) is 0.073 and 0.083 and 0.077; in assay [1] (5 h) it was 0.07 and 0.073 and 0.058; in assay [1] (6 h) it was 0.08 and 0.081 and 0.078; in assay [1] (7 h), 0.077 and 0.084 and 0.075.
Regarding `CC[C@@H](C)[C@@H](NC(=O)[C@@H](Cc1ccccc1)NC(=O)[C@@H](Cc1ccccc1)NC(=O)[C@@H](Cc1ccccc1)NC(=O)[C@H](N)Cc1ccccc1)C(=O)N[C@H](CCCNC(=N)N)C(=O)N[C@H](CCCNC(=N)N)C(=O)N[C@H](CC(C)C)C(=O)N[C@H](Cc1ccccc1)C(=O)N[C@H](CCCNC(=N)N)C(N)=O` [RI-HT2] (H-[dF][dF][dF][dF][dI][dR][dR][dL][dF][dR]-NH2; N-terminus assumed), in assay [2], the “MIC Gram- A. b 1318” value is 3.13 µM (≈ 4.53 µg/mL). Besides, the “MIC Gram- A. b 1337” value in assay [3] is 3.13 µM (≈ 4.53 µg/mL). Besides, the “MIC Gram- K. p 3026” value in assay [4] was found to be 3.13 µM (≈ 4.53 µg/mL).
